Tests used:
Sphaerotheca fuliginea = assay: Activity against mildew on cucumber leaves caused by Sphaerotheca fuliginea, protective application; format: in vivo; conditions: 250 ppm, protective spray on cucumber seedlings, rated after 7 days; untreated control 90% infection
Protocol: The active compounds were prepared as a stock solution with 0.25% by weight of active compound in acetone or DMSO. 1% by weight of the emulsifier Uniperol® EL (wetting agent having emulsifying and dispersing action based on ethoxylated alkylphenols) was added to this solution, and the solution was diluted with water to the desired concentration. 3. Activity against mildew on cucumber leaves caused by Sphaerotheca fuliginea, protective application Leaves of potted cucumber seedlings of the cultivar “Chinese snake” were, at the cotyledon stage, sprayed to runoff point with an aqueous suspension of the active compound concentration given below. 20 hours after the spray coating had dried on, the plants were inoculated with an aqueous spore suspension of mildew of cucumber (Sphaerotheca fuliginea). The plants were then cultivated in a greenhouse at temperatures between 20 and 24° C. and 60 to 80% relative atmospheric humidity for 7 days. The extend of the mildew development was then determined visually in % infection of the coltyledon area.

Botrytis cinerea = assay: Activity against gray mold on capsicum leaves caused by Botrytis cinerea, protective application; format: in vivo; conditions: 250 ppm, protective spray on capsicum seedlings, rated after 5 days; untreated control 90% infection
Protocol: The active compounds were prepared as a stock solution with 0.25% by weight of active compound in acetone or DMSO. 1% by weight of the emulsifier Uniperol® EL (wetting agent having emulsifying and dispersing action based on ethoxylated alkylphenols) was added to this solution, and the solution was diluted with water to the desired concentration. 2. Activity against gray mold on capsicum leaves caused by Botrytis cinerea, protective application Capsicum seedlings of the cultivar “Neusiedler Ideal Elite” were, after 4-5 leaves had fully developed, sprayed to runoff point with an aqueous suspension of the active compound concentration given below. The next day, the treated plants were inoculated with a spore suspension of Botrytis cinerea comprising 1.7×10^6 spores/ml in a 2% aqueous biomalt solution. The test plants were subsequently placed in a climatized chamber at 22 to 24° C. and high atmospheric humidity. After 5 days, the extent of the fungal infection on the leaves could be determined visually in %.

## CCC(C)Cc1nc(C#N)nc(C)c1-c1c(F)cc(F)cc1F (centres unmarked) [I-4, 2-Cyano-4-methyl-5-(2,4,6-trifluorophenyl)-6-(2-methylbutyl)pyrimidine]
Sphaerotheca fuliginea
  infection (mildew, determined visually in % infection of the cotyledon area): no infection
Botrytis cinerea
  infection (gray mold on leaves, determined visually in %): no infection
